Values of other authors, collected in article PMC2228077, “The bioavailability of oral GI147211 (GG211), a new topoisomerase I inhibitor” (British Journal of Cancer, 1997).
Values joined by “and” are separate entries in the source; they are usually repeats but may differ in a detail not shown here. Equal values may be shown once.

Tests used:
[1] = human, in vivo, po; cited from earlier work
[2] = parameters: method as in Rowinsky et al, 1992; Verweij et al, 1993; details: ref Rowinsky et al, 1992; Verweij et al, 1993; cited from earlier work
[3] = parameters: method as in Kuhn et al, 1995; Schellens et al, 1996; details: oral topotecan; ref Kuhn et al, 1995; Schellens et al, 1996; cited from earlier work

Compound | patients who developed CTC grade >= II diarrhoea [1] | dose-limiting toxicity [2] | bioavailability (variable systemic exposure) [3]
CC[C@@]1(O)C(=O)OCc2c1cc1n(c2=O)Cc2cc3c([N+](=O)[O-])cccc3nc2-1 [9-nitro-camptothecin] | 33% | – | –
CC[C@@]1(O)C(=O)OCc2c1cc1n(c2=O)Cc2cc3c(CN(C)C)c(O)ccc3nc2-1 [topotecan] | – | cumulative myelosuppression | 32% and 44%
